According to PubChem BioAssay (NCI):
Several values for one entry are separate records, joined by “and”; a condition that tells them apart may be missing. Equal values may be shown once.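 Dose response: 5 concentrations. Exposure: 48 h. Format: 96-well plates. Endpoint: linear interpolation; highest concentration if not reached. GI50 = concentration required for 50% inhibition of growth. At the TGI there is no net growth.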

Tested on: MDA-MB-468 breast
Assay: inhibition of tumour cell growth, NCI panel, 48 h

SMILES	GI50	TGI
OCCCc1n(Cc2ccc3ccccc3c2)c2ccccc2[n+]1Cc1ccc2ccccc2c1	0.291 µM	1.37 µM
CCN(Cc1cccnc1)c1ccc(CO)c(Cl)c1	0.029 µM	0.104 µM
COc1cc2cc(c1Cl)N(C)C(=O)C[C@H](OC(=O)[C@H](C)N(C)C(=O)CCS)C[C@]1(C)O[C@H]1[C@H](C)[C@@H]1C[C@@](O)(NC(=O)O1)[C@H](OC)/C=C/C=C(\C)C2	< 0.005 µM	< 0.005 µM
CC(C)Cc1ccc(C(C)C(=O)NCc2ccc(Cn3c(=O)sn(CCCCl)c3=O)cc2)cc1 (stereo not given)	1.35 µM	3.01 µM
C/C(=N\NC(=O)c1ccc(C(C)(C)C)cc1)c1ccc(O)cc1O	1.02 µM	5.1 µM
CS(=O)(=O)c1ccc(Oc2cc(F)cc(C#N)c2)c2c1[C@H](O)[C@H](F)[C@H]2F	> 100 µM	> 100 µM
Cc1ccc2c(n1)C(=O)C(Cl)=C(Nc1cccc(C)c1C)C2=O	1.53 µM	3.25 µM
Nc1ncc(-c2ccc3ncnc(N4CCc5ccc(Cl)cc54)c3c2)cn1	0.479 µM	2.08 µM
COC1C(O)CC(OC2CC(OC3CC(O[C@@H]4C(=O)c5c(cc6cc(OC7CC(OC8CC(O)C(O)C(C)O8)C(O)C(C)O7)c(C)c(O)c6c5O)CC4[C@H](OC)C(=O)C(C)=O)OC(C)C3O)OC(C)C2O)OC1C (stereo not given in full)	0.0161 µM	0.0521 µM
CCOC(=O)c1ccc2c(c1)nc(-c1ccc(Cl)cc1)n2-c1cc(C(C)(C)C)[nH]n1	2.12 µM	8.18 µM
CS(=O)(=O)Nc1cc(-c2ccc3ncc(C#N)c(Nc4cccc(Cl)c4F)c3c2)cnc1Cl	0.116 µM	1.39 µM
CC12OC(CC(O)C1O)n1c3ccccc3c3c4c(c5c6ccccc6n2c5c31)C(=O)N(CCN1CCCC1)C4=O (stereo not given)	1 µM	3.11 µM
O=C1c2ccccc2C(=O)c2c(Nc3ccc(CCO)cc3)ccc(O)c21	1.43 µM	22.8 µM
COc1cccc(C(=O)c2sc(Nc3ccc(N4CCN(C(C)C)CC4)cc3)nc2N)c1	1.62 µM	9.22 µM
CC(C)Sc1nc(Nc2ccc(S(N)(=O)=O)cc2)c(C#N)c(-c2ccc(F)cc2)n1	4.59 µM	18 µM
O=C1Nc2ccccc2/C1=C/C(=O)c1ccc(N2CCCC2)cc1	1.96 µM	6.59 µM
COc1cc(/C=C2\CN(S(=O)(=O)c3ccc(C)cc3)C/C(=C\c3cc(CN4CCOCC4)c(O)c(OC)c3)C2=O)cc(CN2CCOCC2)c1O	4.05 µM	> 100 µM
CS(=O)(=O)Nc1ccc(Nc2c3ccccc3nc3cc([N+](=O)[O-])ccc23)cc1	0.304 µM	2.02 µM

SMILES	GI50	TGI
Cc1ccc(C(=Nc2ccccc2)N=P(c2ccccc2)(c2ccccc2)c2ccccc2)cc1	0.944 µM	4.3 µM
CCOC(=O)C1=C(C)N=C2SC=C(c3ccccc3)N2[C@H]1c1cn[nH]c1-c1ccc(Cl)cc1	3.54 µM	16.6 µM
CCN(CC)c1ccc(C2=NN(C(C)=O)C(c3cc(OC)c(OC)c(OC)c3)C2)cc1 (stereo not given)	0.256 µM	4.1 µM
COc1ccc(C(=O)/C=C/c2c(OC)cc(OC)cc2OC)c(OC)c1	1.59 µM	4.66 µM
Cc1ccc(/C=C2\COc3ccc(O)c(O)c3C2=O)cc1	0.907 µM	2.99 µM
O=C(CI)OCC(COC(=O)CI)OC(=O)CI	2.34 µM	7.91 µM
Cc1nc2ccc(Nc3nc(Cl)nc(Nc4ccc(F)cc4)n3)cc2n1Cc1ccccc1	1.86 µM	3.78 µM
CCN(Cc1ccccc1F)c1ccc(CO)c(Cl)c1	–	0.013 µM
Nc1ccn(C2OC(CO)C(O)C2(F)F)c(=O)n1 (stereo not given)	0.018 µM	0.0558 µM
OCc1cn(Cc2ccc(Cl)cc2)c2ccccc12	< 0.01 µM	–
C#CCN(C)CCCOc1ccc(NC(=O)CCCCCCC(=O)NO)cc1Cl	0.853 µM	4.98 µM
COc1ccc([As]=[As]c2ccc(OC)c(NCS(=O)(=O)O)c2)cc1NCS(=O)(=O)O (stereo not given)	1.29 µM	3.06 µM
CC(=O)OC[C@H]1OC(O)C=C[C@@H]1OC(C)=O (stereo not given in full)	82.5 µM	180 µM
COc1ccc(O)c2c(=O)c3c(OC)cc4c(c3oc12)[C@@H]1C=CO[C@@H]1O4	0.131 µM	0.447 µM
Fc1ccc(-c2nc(C(Cl)Cl)nc3cc(-c4ccccc4)nn23)cc1	2.14 µM	4.95 µM
COc1ccc(-c2cc(=O)oc3ccc(Cl)cc23)cc1F	0.11 µM and 0.0295 µM	0.644 µM and 0.0979 µM
Cc1ccc(C(=O)Nc2ccc(CNCCN3CCOCC3)c(C(F)(F)F)c2)cc1C#Cc1cnc2cccnn12	2.15 µM	6.19 µM
COc1ccc(-c2nn(C(=O)NCCN(C)C)cc2-c2ccncc2)cc1Cl	1.95 µM	11.7 µM
